Results from PMC7044277 (Nature Communications, 2020).
“And” between values parts separate entries of the source, which are not always exact repeats. Equal values may be shown once. Values belong to the compound of their own block, whether it stands above or below them.

Tests used:
[1] = target: DRD2 (D2 long receptor) wild-type (Homo sapiens, UniProt P14416); experiment: Radioligand competition binding, [3H]-N-methylspiperone, HEK293T membranes; conditions: for Ki: DRD2, [3H]-methylspiperone (0.8-1.0 nM), read-out: Ki
[2] = target: DRD3 wild-type (Homo sapiens, UniProt P35462); experiment: Radioligand competition binding, [3H]-N-methylspiperone; conditions: for Ki: DRD3, [3H]-methylspiperone (0.8-1.0 nM), read-out: Ki
[3] = target: T1, DRD4 (D4.4 variant) wild-type (Homo sapiens, UniProt P21917); experiment: as above; conditions: DRD4; [3H]-methylspiperone (0.8-1.0 nM); read-out: Ki
T1 sequence (P21917 1-419): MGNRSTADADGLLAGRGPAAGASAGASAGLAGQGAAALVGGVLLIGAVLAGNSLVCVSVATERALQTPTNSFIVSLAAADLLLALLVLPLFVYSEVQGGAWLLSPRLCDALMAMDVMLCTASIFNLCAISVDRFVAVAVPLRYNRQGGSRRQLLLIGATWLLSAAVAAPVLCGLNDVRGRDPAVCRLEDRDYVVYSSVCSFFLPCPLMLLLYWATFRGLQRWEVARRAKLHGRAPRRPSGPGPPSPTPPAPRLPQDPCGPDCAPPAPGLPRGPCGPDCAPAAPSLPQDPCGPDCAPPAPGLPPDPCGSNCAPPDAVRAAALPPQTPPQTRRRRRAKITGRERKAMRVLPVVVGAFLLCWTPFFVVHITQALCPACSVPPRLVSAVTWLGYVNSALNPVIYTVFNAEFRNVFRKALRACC

[4] = target: DRD3 F1063.28A (Homo sapiens, UniProt P35462, F106A); experiment: biochemical; format: binding; conditions: DRD3 F1063.28A; read-out: Ki
[5] = target: T2, DRD2 (D2 long receptor) (Homo sapiens, UniProt P14416); experiment: Gαi/o-mediated cAMP inhibition (GloSensor split-luciferase cAMP reporter), HEK293T; format: cell-based; conditions: for EC50: agonist, Gαi/o-mediated cAMP inhibition, read-out: EC50 ± SEM; for Response, Fig_S11b dose-response: individual replicates;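 on all read-outs here: compounds applied 15 min at room temperature, then luciferin plus 400 nM isoproterenol to raise cAMP through endogenous β2-adrenergic receptors, luminescence read 15 min later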
[6] = target: T3, DRD4 (D4.4 variant) (Homo sapiens, UniProt P21917); experiment: Gαi/o-mediated cAMP inhibition (GloSensor); format: cell-based; conditions: DRD4; agonist, cAMP inhibition; read-out: EC50 ± SEM
T3 sequence (P21917 1-419): T1 sequence (P21917 1-419)

[7] = target: T2, DRD2 (D2 long receptor); experiment: β-arrestin2 recruitment (Tango), HTLA cells; format: cell-based; conditions: for EC50: β-arrestin2 recruitment (Tango), read-out: EC50 ± SEM; for Response, Fig_S11c dose-response: individual replicates
[8] = target: DRD3 (Homo sapiens, UniProt P35462); experiment: β-arrestin2 recruitment (Tango); format: cell-based; conditions: DRD3, Tango; for EC50: read-out: EC50 ± SEM
[9] = target: T3, DRD4 (D4.4 variant); experiment: β-arrestin2 recruitment (Tango); format: cell-based; conditions: DRD4; Tango; read-out: EC50 ± SEM
[10] = target: DRD2 F1103.28A (Homo sapiens, UniProt P14416, F110A); format: binding; set-up: expressed in transfected cells; host or cells: HEK293T (ATCC CRL-11268); conditions: DRD2 F1103.28A; for Ki: read-out: Ki
Chain of DRD2 F1103.28A (P14416 whole entry F110A): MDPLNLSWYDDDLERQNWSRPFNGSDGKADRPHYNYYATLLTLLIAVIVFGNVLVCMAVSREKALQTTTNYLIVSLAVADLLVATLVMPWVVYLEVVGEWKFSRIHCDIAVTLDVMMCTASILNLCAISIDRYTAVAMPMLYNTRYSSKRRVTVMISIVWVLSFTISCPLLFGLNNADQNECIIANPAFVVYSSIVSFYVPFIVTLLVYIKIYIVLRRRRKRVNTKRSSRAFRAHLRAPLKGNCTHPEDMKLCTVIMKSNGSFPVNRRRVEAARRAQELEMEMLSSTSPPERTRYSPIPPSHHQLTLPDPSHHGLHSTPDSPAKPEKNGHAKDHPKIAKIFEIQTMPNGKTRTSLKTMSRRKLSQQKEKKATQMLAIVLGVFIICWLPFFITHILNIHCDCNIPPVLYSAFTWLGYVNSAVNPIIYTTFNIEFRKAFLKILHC

Chain of DRD3 (P35462 whole entry): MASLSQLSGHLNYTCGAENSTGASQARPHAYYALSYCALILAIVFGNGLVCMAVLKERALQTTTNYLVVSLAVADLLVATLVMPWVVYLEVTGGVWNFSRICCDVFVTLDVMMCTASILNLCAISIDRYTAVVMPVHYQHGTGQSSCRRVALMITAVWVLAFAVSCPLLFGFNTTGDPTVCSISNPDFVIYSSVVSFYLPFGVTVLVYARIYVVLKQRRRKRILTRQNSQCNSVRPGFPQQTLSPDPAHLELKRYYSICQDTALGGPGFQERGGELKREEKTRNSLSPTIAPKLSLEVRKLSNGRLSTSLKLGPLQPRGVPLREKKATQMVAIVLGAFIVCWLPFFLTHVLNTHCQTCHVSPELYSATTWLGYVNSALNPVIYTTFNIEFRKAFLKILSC
Chain of DRD3 wild-type (P35462 whole entry): as above
Chain of DRD2 (D2 long receptor) wild-type (P14416 whole entry): as the sequence (P14416 whole entry F110A) above, with A110F counted along it
T2 sequence (P14416 whole entry): as the sequence (P14416 whole entry F110A) above, with A110F counted along it
Chain of DRD3 F1063.28A (P35462 whole entry F106A): as the sequence (P35462 whole entry) above, with F106A counted along it

Compound: CCOc1cccc2cc(C(C)NCC(C)(C)O)oc12 (racemic) [O4LE2]
Ki [1]: > 10 µM
Ki [2]: > 10 µM
Ki [3]: > 10 µM
Ki [4]: > 10 µM
EC50 ([5]; DRD2): > 10 µM
EC50 [6]: > 10 µM
EC50 ([7]; DRD2): > 10 µM
EC50 [8]: > 10 µM
EC50 [9]: > 10 µM
Ki [10]: > 10 µM

Ki [1]: 4.78 µM
pKi ± SEM ([1]; DRD2 wild-type): 5.32±0.22
Ki [2]: 1.07 µM
pKi ± SEM ([2]; DRD3 wild-type): 5.97±0.13
Ki [3]: > 10 µM
EC50 ([5]; DRD2): 0.00538 ± 0.00115 µM
Emax relative to quinpirole response ([5]; DRD2, cAMP inhibition): 91.62%
Response, Fig_S11b dose-response ([5]; Log[Drug] -10.52): -0.1987 and -7.8123
Response, Fig_S11b dose-response ([5]; Log[Drug] -11): 6.197 and 12.6784 and -7.6785 and 0.5663
Response, Fig_S11b dose-response ([5]; Log[Drug] -11.52): -9.1412 and 3.4 and -7.0575 and 6.319
EC50 [6]: > 10 µM
Emax relative to quinpirole response ([7]; DRD2, Tango): 109.80%
EC50 ([7]; DRD2): 0.166 ± 0.0764 µM
Response, Fig_S11c dose-response ([7]; Log[Drug] -6.52): 92.1418 and 88.9307
Emax relative to quinpirole response [8]: 80.01%
EC50 [8]: 5.48 ± 3.94 µM
EC50 [9]: > 10 µM
pKi ± SEM [10]: 5.49±0.16
Ki [10]: 3.24 µM
Compound: COc1cccc2cc(C(C)NCC3(O)CCCCC3)oc12.Cl (stereo not shown) [O3LE6]
Response, Fig_S11b dose-response ([5]; Log[Drug] -5): 91.2746 and 93.268 and 92.0221 and 94.9982 and 95.9757 and 91.0458 and 94.8288 and 96.7238 and 94.4943
Response, Fig_S11b dose-response ([5]; Log[Drug] -5.52): 84.7131 and 82.1661 and 88.7829 and 90.1533 and 94.7432 and 84.076 and 96.9467 and 103.412 and 92.2649
Response, Fig_S11b dose-response ([5]; Log[Drug] -6): 91.1916 and 89.8903 and 94.4031 and 97.8031 and 85.4785 and 88.6659 and 101.461 and 101.183 and 85.6322
Response, Fig_S11b dose-response ([5]; Log[Drug] -6.52): 79.2314 and 90.7486 and 80.9756 and 96.6556 and 102.308 and 66.8216 and 90.3141 and 94.5501 and 81.1733
Response, Fig_S11b dose-response ([5]; Log[Drug] -7): 93.1296 and 79.0099 and 76.7951 and 89.8559 and 81.4411 and 87.5184 and 97.0582 and 96.7796 and 87.8617
Response, Fig_S11b dose-response ([5]; Log[Drug] -7.52): 73.6389 and 59.4361 and 66.496 and 84.9685 and 73.1539 and 73.1114 and 79.2783 and 81.1733 and 101.35
Response, Fig_S11b dose-response ([5]; Log[Drug] -8): 62.703 and 59.1593 and 45.4826 and 64.1867 and 54.9645 and 52.4996 and 72.7571 and 85.8552 and 67.9638
Response, Fig_S11b dose-response ([5]; Log[Drug] -8.52): 23.5556 and 18.5998 and 3.594 and 27.9779 and 38.8575 and 46.6347 and 39.4267 and 57.0952 and 34.8006
Response, Fig_S11b dose-response ([5]; Log[Drug] -9): 24.2477 and 23.1957 and 12.4536 and 22.6655 and 22.9205 and 23.0055 and 26.2172 and 30.5646 and 12.7847
Response, Fig_S11b dose-response ([5]; Log[Drug] -12): -5.1267 and 0.6872 and -14.1523 and 6.559 and 2.691 and 2.479 and -11.9066 and 21.591 and -2.8216
response, Fig_S11c dose-response source data ([7]; Fig_S11c, Log[Drug] -5, replicate values): 121.198 and 127.001 and 100.932 and 110.321 and 113.709 and 113.34 and 97.1155
Response, Fig_S11c dose-response ([7]; Log[Drug] -7): 77.394 and 77.7575 and 68.5542 and 65.6395 and 57.0787 and 60.1228 and 51.2599 and 46.3298
Response, Fig_S11c dose-response ([7]; Log[Drug] -7.52): 38.329 and 41.6231 and 33.61 and 32.4962 and 32.299 and 34.1126 and 16.8232 and 31.0553 and 35.575
Response, Fig_S11c dose-response ([7]; Log[Drug] -8): 11.9901 and 12.2692 and 10.2755 and 10.8849 and 10.4485 and 8.443 and 10.7171 and 9.707 and 5.469
Response, Fig_S11c dose-response ([7]; Log[Drug] -8.52): 3.649 and 3.804 and 4.186 and 3.535 and 4.03 and 2.927 and 1.899 and 5.413 and 2.845
Response, Fig_S11c dose-response ([7]; Log[Drug] -9): 2.6531 and 2.675 and 3.049 and 2.914 and 2.704 and 2.807 and 3.034 (2×) and 2.494
Response, Fig_S11c dose-response ([7]; Log[Drug] -9.52): 2.467 and 2.869 and 2.678 and 2.37 and 2.33 and 2.2184 and 1.931 and 2.13 and 2.319
Response, Fig_S11c dose-response ([7]; Log[Drug] -10): 2.843 and 2.654 and 2.976 and 2.168 and 2.347 and 2.222 and 3.804 and 1.194 and 2.499
Response, Fig_S11c dose-response ([7]; Log[Drug] -10.52): 2.259 and 2.282 and 2.549 and 2.128 and 2.141 (2×) and 0.6309 and 3.246 and 2.4849
Response, Fig_S11c dose-response ([7]; Log[Drug] -11): 2.232 and 3.428 and 2.336 and 2.237 and 2.197 and 2.087 and 5.0906 and 1.927 and 3.601
Response, Fig_S11c dose-response ([7]; Log[Drug] -11.52): 2.2032 and 3.321 and 2.444 and 2.452 and 2.181 and 2.306 and 0.82 and 1.028 and 2.688
Response, Fig_S11c dose-response ([7]; Log[Drug] -12): 2.5295 and 2.339 and 2.21 and 2.47 and 2.197 and 2.157 and 4.362 and 2.319 and 1.955

Compound: CCOc1cccc2cc(C(C)NCCO)oc12 (stereo not shown) [O4LE1]
Ki [1]: > 10 µM
Ki [2]: > 10 µM
Ki [3]: > 10 µM
Ki [4]: > 10 µM
EC50 ([5]; DRD2): > 10 µM
EC50 [6]: > 10 µM
EC50 ([7]; DRD2): > 10 µM
EC50 [8]: > 10 µM
EC50 [9]: > 10 µM
Ki [10]: > 10 µM
